Reference: paper PMC3509364 (Angewandte Chemie (International ed. in English), 2012)

Target: PAK1 (Homo sapiens, UniProt Q13153)
Test: PAK1 kinase inhibition, IC50 curves at 1 µM ATP
Format: biochemical

Chain of PAK1 (Q13153 whole entry): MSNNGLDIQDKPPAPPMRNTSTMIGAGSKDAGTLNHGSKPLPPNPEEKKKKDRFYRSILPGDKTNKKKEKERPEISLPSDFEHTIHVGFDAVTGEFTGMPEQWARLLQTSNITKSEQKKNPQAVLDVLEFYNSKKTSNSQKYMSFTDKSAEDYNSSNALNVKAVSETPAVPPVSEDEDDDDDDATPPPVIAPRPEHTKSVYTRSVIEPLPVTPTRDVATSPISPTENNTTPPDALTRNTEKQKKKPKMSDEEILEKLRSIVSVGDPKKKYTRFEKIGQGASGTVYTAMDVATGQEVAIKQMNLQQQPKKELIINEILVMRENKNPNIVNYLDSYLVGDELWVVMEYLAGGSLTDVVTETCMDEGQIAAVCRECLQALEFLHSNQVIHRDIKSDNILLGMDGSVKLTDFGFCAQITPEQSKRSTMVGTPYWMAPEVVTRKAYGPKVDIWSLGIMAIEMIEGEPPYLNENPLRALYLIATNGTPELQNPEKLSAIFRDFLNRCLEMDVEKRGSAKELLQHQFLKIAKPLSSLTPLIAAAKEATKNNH

IC50 (read-out: IC50 against PAK1, 1 µM ATP (Figure 3)): 0.625 ± 0.06 µM
Substance: SeCN
fold weaker inhibitor of PAK1 than NCS complex 1 (ratio of IC50 values, 1 µM ATP): 7.5 fold
